Key:
HFLS-RA cells = experiment: Effect on HFLS-RA cell proliferation activity (CCK-8); assay type: cell-based, human; settings: TNF-α 10 ng/mL induced HFLS-RA cells, 72 h after treatment, x ± s
Description: Co-incubation: HFLS-RA cells in a logarithmic growth phase were inoculated in a 96-well culture plate at a density of 3×10^4 cells/ml with an inoculation volume of each well being 100 μL, and cultured for 24 h in a 37° C. and 5% CO2 incubator (the cell adhesion convergence degree reached about 25%) after inoculation, and then a proper amount of sample solutions was added according to the grouping and final concentrations of samples, with 3 duplicated wells set in each group. Before sampling (0 h), group 1 in blank control group was subjected to CCK-8 detection, and the rest groups were cultured for 72 h in an incubator and then subjected to CCK-8 detection.
Detection and calculation: the culture solution was discarded, and 100 μL of culture medium containing a 10% CCK-8 solution was added into each well and incubated for 2 h at 37° C. The light absorption value (OD value) was measured at 450 nm using a microplate reader, and the cell proliferation rate was calculated according to the following formula.
cell proliferation rate=[OD(72 h)−OD(0 h)]/OD(0 h)×100%, Calculation formula
where, OD(0 h) represents the OD value at 0 h, and […].

IL-6 in HFLS-RA cells = experiment: Effect on HFLS-RA cytokine secretion, IL-6 (ELISA); assay type: cell-based, human; parameters: unit not given here; settings: supernatant content, TNF-α 10 ng/mL, test sample 100 µg/mL, 48 h culture, x ± s
Description: (§1) The experiment was divided into a blank control group (containing no test samples or TNF-α), a TNF-α group (the final concentration of TNF-α for cell incubation was 10 ng/mL), test sample groups (8 groups in total, including DSC4801 group, DSC4807 group, DSC4810 group, DSC4813 group, DSC4821 group and DSC4826 group as well as control 1 group, control 3 group, the final concentrations of test samples for cell incubation and of TNT-α were 100 µg/mL and 10 ng/mL, respectively).
(§2) HFLS-RA cells in a logarithmic growth phase were inoculated in a 6-well culture plate at a density of 5×10^4 cell/ml with an inoculation volume of each well being 200 μL, and cultured for 2 h in a 37° C. and 5% CO2 incubator after inoculation, and then a proper amount of sample solutions was added according to the grouping and the final concentrations of samples, with 3 duplicated wells set in each group. Cell supernatant was collected after further culture of 48 h, and the contents of IL-6 and IL-8 in the supernatant were detected using an ELISA kit.

IL-8 in HFLS-RA cells = experiment: Effect on HFLS-RA cytokine secretion, IL-8 (ELISA); assay type: cell-based, human; parameters: unit not given here; settings: supernatant content, TNF-α 10 ng/mL, test sample 100 µg/mL, 48 h culture, x ± s
Description: as §1, §2

[1] = after oral administration; cited from earlier work
[2] = cited from earlier work
[3] = single local administration of 1% loxoprofen (100 mg), in 12 hours; cited from earlier work
[4] = Joint tissue distribution after oral gavage; assay type: in vivo; settings: SD rats, ankle joint tissue at 0.5, 1, 2 h, trans-OH metabolite detected by LC-MS/MS, compared with control 1 and control 2, P<0.001 (FIG. 1)
Description: 36 healthy male SD rats with a body weight of 200±20 g per rat were fed under conditions of a room temperature of 20-26° C., a humidity of 40%-70% and a light and dark cycle of 12 h/12 h, the rats were fed at liberty in the process of feeding. After adaptive feeding for 3 days, the SD rats were randomly divided into 4 groups (A/B/C/D groups), with 9 rats per group, each group was further randomly divided into 3 time groups, with 3 rats per time group. A suspension (the test samples were suspended with 1% MS, respectively) of the test sample was given to each group via oral gavage, wherein group A was administrated with 3 mg/kg of DSC4813, group B was administrated with 2.94 mg/kg of DSC4821, group C was administrated with 2.47 mg/kg of control 1, and group D was administrated with 2 mg/kg of control 2 (loxoprofen). 3 rats were anesthetized and euthanized in each group at 0.5 h, 1 h and 2 h, respectively after administration. The left and right ankle joints of hind legs were dissected, and the skin at the joints was peeled off. […] To-be-detected substances were detected by LC-MS/MS (compound trans-OH metabolite was detected for groups A/B/C, loxoprofen and all isomers whose carbonyl was reduced to OH for group D, and the results of group D were a sum of concentrations of loxoprofen and all isomers whose carbonyl was reduced to OH).

| Structure (SMILES) | Cell proliferation rate (HFLS-RA cells) | other results |
| --- | --- | --- |
| CCCC(=O)O[C@H]1CCC[C@@H]1Cc1ccc([C@H](C)C(=O)O)cc1 [Control 1, reference compound] | 39.33 ± 3.46% | IL-6 (IL-6 in HFLS-RA cells): 67.45 ± 2.68; IL-8 (IL-8 in HFLS-RA cells): 131.21 ± 6.88 |
| CC(C(=O)O)c1ccc(CC2CCCC2=O)cc1 (stereo not drawn) [Control 2, loxoprofen, reference compound] | 48.25 ± 3.21% | – |
| CC(C(=O)O)c1ccc(CC2CCCC2=O)cc1 (stereo not drawn) [Control 2, loxoprofen] | – | Time until plasma concentration reaches peak [1]: 30 to 50 min; Plasma protein binding rate [2]: 97%; Dose transferred to a body [3]: 10% |
| CCN(CC)CCOC(=O)[C@@H](C)c1ccc(C[C@H]2CCC[C@@H]2O)cc1 [DSC4801] | 31.18 ± 1.82% | IL-6 (IL-6 in HFLS-RA cells): 46.26 ± 0.35; IL-8 (IL-8 in HFLS-RA cells): 119.08 ± 4.55 |
| CCN(CC)CCOCCOC(=O)[C@@H](C)c1ccc(C[C@H]2CCC[C@@H]2O)cc1 [DSC4802] | 27.26 ± 2.41% | – |
| CCN(CC)CCN(CC)CCOC(=O)[C@@H](C)c1ccc(C[C@H]2CCC[C@@H]2O)cc1 [DSC4803] | 30.17 ± 1.85% | – |
| CCN(CC)CCOC(=O)[C@@H](C)c1ccc(C[C@H]2CCC[C@@H]2OC(C)=O)cc1 [DSC4804] | 29.36 ± 2.33% | – |
| CCN(CC)CCOCCOC(=O)[C@@H](C)c1ccc(C[C@H]2CCC[C@@H]2OC(C)=O)cc1 [DSC4805] | 29.28 ± 1.92% | – |
| CCN(CC)CCOC(=O)[C@@H](C)c1ccc(C[C@H]2CCC[C@@H]2OC(=O)C(CS)N(C)C)cc1 (stereo partly drawn) [DSC4806] | 24.19 ± 2.24% | – |
| CCN(CC)CCOCC(=O)O[C@H]1CCC[C@@H]1Cc1ccc([C@H](C)C(=O)O)cc1 [DSC4807] | 22.23 ± 3.04% | IL-6 (IL-6 in HFLS-RA cells): 48.01 ± 0.77; IL-8 (IL-8 in HFLS-RA cells): 121.66 ± 4.78 |
| CCN(CC)CCNCCOCC(=O)O[C@H]1CCC[C@@H]1Cc1ccc([C@H](C)C(=O)O)cc1 [DSC4808] | 23.11 ± 2.25% | – |
| C[C@H](C(=O)O)c1ccc(C[C@H]2CCC[C@@H]2OC(=O)C(N)CS)cc1 (stereo partly drawn) [DSC4809] | 22.47 ± 1.99% | – |
| C[C@H](C(=O)O)c1ccc(C[C@H]2CCC[C@@H]2OC(=O)C(CS)N(C)C)cc1 (stereo partly drawn) [DSC4810] | 24.95 ± 2.65% | IL-6 (IL-6 in HFLS-RA cells): 47.88 ± 0.72; IL-8 (IL-8 in HFLS-RA cells): 118.57 ± 3.92 |
| CCOC(=O)[C@@H](C)c1ccc(C[C@H]2CCC[C@@H]2OC(=O)COCCN(CC)CC)cc1 [DSC4811] | 22.37 ± 1.78% | – |
| CCOC(=O)[C@@H](C)c1ccc(C[C@H]2CCC[C@@H]2OC(=O)C(CS)N(C)C)cc1 (stereo partly drawn) [DSC4812] | 23.81 ± 2.21% | – |
| C[C@H](C(=O)OCCN1C(=O)CCC1=O)c1ccc(C[C@H]2CCC[C@@H]2O)cc1 [DSC4813] | 22.34 ± 2.72% | IL-6 (IL-6 in HFLS-RA cells): 46.82 ± 0.63; IL-8 (IL-8 in HFLS-RA cells): 119.48 ± 4.07; Distribution at joints [4]: significantly improved |
| CC(=O)O[C@H]1CCC[C@@H]1Cc1ccc([C@H](C)C(=O)OCCN2C(=O)CCC2=O)cc1 [DSC4814] | 24.36 ± 1.99% | – |
| CC[N+](CC)(CC)CCOC(=O)[C@@H](C)c1ccc(C[C@H]2CCC[C@@H]2O)cc1 [DSC4815] | 28.31 ± 2.26% | – |
| CC[N+](CC)(CC)CCOC(=O)[C@@H](C)c1ccc(C[C@H]2CCC[C@@H]2O)cc1 [DSC4816] | 29.71 ± 2.83% | – |
| CCOC(=O)[C@@H](C)c1ccc(C[C@H]2CCC[C@@H]2OC(=O)COCC[N+](CC)(CC)CC)cc1 [DSC4817] | 23.32 ± 2.46% | – |
| CCOC(=O)[C@@H](C)c1ccc(C[C@H]2CCC[C@@H]2OC(=O)COCC[N+](CC)(CC)CC)cc1 [DSC4818] | 22.54 ± 2.14% | – |
| CCOC(=O)[C@@H](C)c1ccc(C[C@H]2CCC[C@@H]2OC(=O)CN(CC)CC)cc1 [DSC4819] | 20.36 ± 2.10% | – |
| CCOC(=O)[C@@H](C)c1ccc(C[C@H]2CCC[C@@H]2OC(=O)CCN(CC)CC)cc1 [DSC4820] | 21.11 ± 3.56% | – |
| CCN(CC)CC(=O)O[C@H]1CCC[C@@H]1Cc1ccc([C@H](C)C(=O)O)cc1 [DSC4821] | 20.96 ± 1.85% | IL-6 (IL-6 in HFLS-RA cells): 46.58 ± 0.61; IL-8 (IL-8 in HFLS-RA cells): 117.72 ± 3.43; Distribution at joints [4]: significantly improved |
| CCOC(=O)[C@@H](C)c1ccc(C[C@H]2CCC[C@@H]2OC(=O)OCCN(CC)CC)cc1 [DSC4825] | 22.53 ± 2.66% | – |
| CCN(CC)CCOC(=O)O[C@H]1CCC[C@@H]1Cc1ccc([C@H](C)C(=O)O)cc1 [DSC4826] | 21.43 ± 1.94% | IL-6 (IL-6 in HFLS-RA cells): 47.59 ± 0.45; IL-8 (IL-8 in HFLS-RA cells): 117.77 ± 4.23 |
| CN(Cc1cnc2nc(N)nc(N)c2n1)c1ccc(C(=O)N[C@@H](CCC(=O)O)C(=O)O)cc1 [Negative control group, methotrexate, reference compound] | – | Cell proliferation rate (HFLS-RA cells; methotrexate 1 g/mL): 18.37 ± 1.32% |

Reference: US20250281452A1, “CHIRAL ARYL PROPIONIC ACID DERIVATIVE AND PHARMACEUTICAL COMPOSITION THEREOF, AND USE” (SHIJIAZHUANG DISCOVERY MEDICINE TECHNOLOGY CO., LTD, priority 2022, published 2025)
